We go through eight molecules from US5985968A, “Surface tension reduction with N,N-dialkyl ureas” (Air Products and Chemicals, Inc., priority 1997, dated 1999).

Usually solubility stands for how much of the substance goes into solution per volume. Low readings indicate a poorly soluble substance, high ones a readily soluble substance.

In brackets after ≈: the same amount, converted by molar mass. Some results are limits rather than exact numbers.

Common to all, as to assay type: physicochemical
Data set [1] is described as follows: Dynamic surface tension of aqueous solutions, maximum-bubble-pressure method. The following applies: for Dynamic Surface Tension: about 23° C.; for Surface tension reduction (in words): summary of dynamic surface tension data. From the text:
This invention relates to the use of compounds of the formula [drawing 3] where R1 and R2 are independently C1 to C6 alkyl or cycloalkyl with the total number of carbons in R and R' being 6-12 for the reduction of equilibrium and dynamic surface tension in water-based formulations containing an organic compound, particularly coating, ink, and agricultural formulations. […] The maximum-bubble-pressure method of measuring surface tension is described in Langmuir 1986, 2, 428-432, which is incorporated by reference.
In the following examples dynamic surface tension data were generated for aqueous solutions of the indicated compounds using the maximum-bubble-pressure method at the indicated bubble rates, i.e., bubbles/second (b/s), and room temperature of about 23° C. The equipment used was a Kruss BP 2 bubble pressure tensiometer.
(§1) A saturated solution in distilled water of N,N'-di-n-butylurea was prepared by placing 0.1 g of the urea into 99.9 g of water and shaking the mixture for 1-2 h. […] The solids were removed by filtration, and the dynamic surface tension of the resulting solution was measured using the maximum bubble pressure method at bubble rates from 0.1 to 20 b/s. […] In practical terms, high bubble rates correspond to high printing speeds in lithographic or ink-jet printing, high spray or roller velocities in coating applications, and rapid application rates for agricultural products.
Aqueous solutions of N,N-dibutylurea were prepared and their surface tensions were measured using the procedure described above.

Data set [2] in a line: Solubility in water (saturated solution / solubility limit). The following applies: for dissolution (in words): 0.1 g urea in 99.9 g water, shaken 1-2 h; for solubility thermodynamic: saturated solution in distilled water, solids filtered off, read-out: Concentration of saturated solution. The method, then:
(§2) A series of aqueous solutions of various concentrations of n-octylurea [Pfaltz & Bauer] was prepared by placing the urea into water and shaking the mixture for 1-2 h. All of the urea dissolved in the low concentration samples. Undissolved urea in some of the higher concentration samples was remove by filtration. Surface tensions of these solutions were measured using the Wilheimy plate technique. This method provides equilibrium surface tension values. Equilibrium values are always equal to or lower than those obtained under dynamic conditions.
as §1
A saturated solution in distilled water of N,N-di-(2-ethylhexyl)urea was prepared by placing 0.1 g of the urea into 99.9 g of water and shaking the mixture for 1-2 h. […] The solids were removed by filtration, and the surface tension of the resulting solution was measured as described above.
Similarly, a saturated solution in distilled water of N,N-di-n-octylurea was prepared by placing 0.1 g of the urea into 99.9 g of water and shaking the mixture for 1-2 hr. […] The solids were removed by filtration, and the surface tension of the resulting solution was measured as described above.
A saturated solution in distilled water of N,N-di-n-hexylurea was prepared by placing 0.1 g of the urea into 99.9 g of water and shaking the mixture for 1-2 h. […] The solids were removed by filtration, and the surface tension of the resulting solution was measured as described above.

A short description of data set [3]: Foaming properties of 0.1 wt % solution, procedure based upon ASTM D 1173-53. The method, then:
The foaming properties of a 0.1 wt % solution of N,N-dibutylurea, N,N-dipentyl-urea, and N,N-dihexylurea were examined using a procedure based upon ASTM D 1173-53. In this test, a 0.1 wt % solution of the surfactant is added from an elevated foam pipette to a foam receiver containing the same solution. The foam height is measured at the completion of the addition ("Initial Foam Height") and the time required for the foam to dissipate is recorded ("Time to 0 Foam"). This test provides a comparison between the foaming characteristics of various surfactant solutions. In general, in coatings, inks, and agricultural formulations, foam is undesirable because is complicates handling and can lead to coating and print defects, and to inefficient application of agricultural materials.

The nature of data set [4]: Equilibrium surface tension of aqueous solutions, Wilhelmy plate technique. The protocol: as §2

With `CCCCNC(=O)NCCCC` [N,N'-Di-n-butylurea, N,N'-di-n-butylurea, reference compound], the “Dynamic Surface Tension” value in data set [1] (saturated (<0.1 wt %), 0.1 b/s) was determined as 59.0 dyne/cm; in data set [1] (saturated (<0.1 wt %), 1 b/s) it was 59.6 dyne/cm; in data set [1] (saturated (<0.1 wt %), 6 b/s), 60.2 dyne/cm; in data set [1] (saturated (<0.1 wt %), 15 b/s) it was 60.6 dyne/cm; in data set [1] (saturated (<0.1 wt %), 20 b/s) it was 60.9 dyne/cm. Moreover, the “dissolution (in words)” value in data set [2] is “Most of the N,N'-di-n-butylurea remained undissolved”. Further, in data set [2], the solubility thermodynamic was below 1000 µg/mL.

Take `CCCCC(CC)CN(CC(CC)CCCC)C(N)=O` (stereo not shown) [N,N-Di-(2-ethylhexyl)urea, N,N-di-(2-ethylhexyl)urea, reference compound]: the “Dynamic Surface Tension” value in data set [1] (saturated (<0.1 wt %), 0.1 b/s) is reported as 60.1 dyne/cm; in data set [1] (saturated (<0.1 wt %), 1 b/s), 69.2 dyne/cm; in data set [1] (saturated (<0.1 wt %), 6 b/s), 69.6 dyne/cm; in data set [1] (saturated (<0.1 wt %), 15 b/s) it was 69.3 dyne/cm; in data set [1] (saturated (<0.1 wt %), 20 b/s), 68.1 dyne/cm. Besides, the “dissolution (in words)” value in data set [2] was “Most of the urea remained undissolved”. Also, the solubility thermodynamic in data set [2] was below 1000 µg/mL.

As for `CN(C(N)=O)C1CCCCC1` [N-cyclohexyl-N-methylurea], the “Dynamic Surface Tension” value in data set [1] (1.0 wt %, 0.1 b/s) is 51.9 dyne/cm; in data set [1] (1.0 wt %, 1 b/s), 52.4 dyne/cm; in data set [1] (1.0 wt %, 6 b/s), 52.9 dyne/cm; in data set [1] (1.0 wt %, 15 b/s), 53.2 dyne/cm; in data set [1] (1.0 wt %, 20 b/s), 53.2 dyne/cm; in data set [1] (2.5 wt %, 0.1 b/s) it was 44.1 dyne/cm. Further, the “Dynamic Surface Tension” value in data set [1] (2.5 wt %, 1 b/s) is 44.6 dyne/cm; in data set [1] (2.5 wt %, 6 b/s), 45.1 dyne/cm; in data set [1] (2.5 wt %, 15 b/s) it was 45.6 dyne/cm; in data set [1] (2.5 wt %, 20 b/s), 45.8 dyne/cm. The “Surface tension reduction (in words)” value in data set [1] is recorded as “reasonably effective at reducing the surface tension of water”.

In the case of `CCCN(CCC)C(N)=O` [N,N-Di-n-propylurea, N,N-di-n-propylurea], the “Dynamic Surface Tension” value in data set [1] (0.5 wt %, 0.1 b/s) was found to be 53.8 dyne/cm; in data set [1] (0.5 wt %, 1 b/s) it was 54.0 dyne/cm; in data set [1] (0.5 wt %, 6 b/s), 54.3 dyne/cm; in data set [1] (0.5 wt %, 15 b/s) it was 53.8 dyne/cm; in data set [1] (0.5 wt %, 20 b/s) it was 53.7 dyne/cm; in data set [1] (2.0 wt %, 0.1 b/s), 43.4 dyne/cm. In addition, the “Dynamic Surface Tension” value is reported as 43.6 dyne/cm in data set [1] (2.0 wt %, 1 b/s); 43.9 dyne/cm in data set [1] (2.0 wt %, 6 b/s); 44.4 dyne/cm in data set [1] (2.0 wt %, 15 b/s); 44.5 dyne/cm in data set [1] (2.0 wt %, 20 b/s); 39.0 dyne/cm in data set [1] (4.0 wt %, 0.1 b/s); 39.1 dyne/cm in data set [1] (4.0 wt %, 1 b/s). Further, the “Dynamic Surface Tension” value came out at 39.3 dyne/cm in data set [1] (4.0 wt %, 6 b/s); 39.5 dyne/cm in data set [1] (4.0 wt %, 15 b/s); 39.6 dyne/cm in data set [1] (4.0 wt %, 20 b/s). For the same molecule, the “Surface tension reduction (in words)” value in data set [1] is given as “reasonably effective at reducing the surface tension of water”.

Take `CCCCN(CCCC)C(N)=O` [N,N-Dibutylurea, N,N-dibutylurea]: the “Dynamic Surface Tension” value in data set [1] (0.3 wt %, 0.1 b/s) turned out to be 42.9 dyne/cm; in data set [1] (0.3 wt %, 1 b/s) it was 43.1 dyne/cm; in data set [1] (0.3 wt %, 6 b/s), 43.4 dyne/cm; in data set [1] (0.3 wt %, 15 b/s) it was 43.4 dyne/cm; in data set [1] (0.3 wt %, 20 b/s), 43.6 dyne/cm; in data set [1] (1.0 wt %, 0.1 b/s), 32.7 dyne/cm. The “Dynamic Surface Tension” value in data set [1] (1.0 wt %, 1 b/s) turned out to be 32.9 dyne/cm; in data set [1] (1.0 wt %, 6 b/s), 33.2 dyne/cm; in data set [1] (1.0 wt %, 15 b/s) it was 33.8 dyne/cm; in data set [1] (1.0 wt %, 20 b/s), 34.1 dyne/cm; in data set [1] (1.5 wt %, 0.1 b/s), 28.2 dyne/cm; in data set [1] (1.5 wt %, 1 b/s) it was 28.3 dyne/cm. For the same molecule, the “Dynamic Surface Tension” value in data set [1] (1.5 wt %, 6 b/s) is on record as 28.5 dyne/cm; in data set [1] (1.5 wt %, 15 b/s), 29.1 dyne/cm; in data set [1] (1.5 wt %, 20 b/s), 29.5 dyne/cm; in data set [1] (1.5 wt %, 20 b/s, listed as N,N-dibutylurea), “below 30 dyne/cm”. Besides, the “Surface tension reduction (in words)” value in data set [1] is on record as “highly effective at reducing the surface tension of water”. Moreover, in data set [3], the “Initial Foam Height” value amounted to 3.0 cm. The “Time to 0 Foam” value in data set [3] is 5 s.

Consider `CCCCCCN(CCCCCC)C(N)=O` [N,N-Di-n-hexylurea, N,N-di-n-hexylurea], for which the “Dynamic Surface Tension” value in data set [1] (saturated (<0.1 wt %), 0.1 b/s) amounted to 34.7 dyne/cm; in data set [1] (saturated (<0.1 wt %), 1 b/s), 42.8 dyne/cm; in data set [1] (saturated (<0.1 wt %), 6 b/s) it was 56.8 dyne/cm; in data set [1] (saturated (<0.1 wt %), 15 b/s), 63.7 dyne/cm; in data set [1] (saturated (<0.1 wt %), 20 b/s), 62.4 dyne/cm. In addition, the “dissolution (in words)” value in data set [2] is recorded as “Most of the N,N-di-n-hexylurea remained undissolved”. In addition, the solubility thermodynamic in data set [2] was below 1000 µg/mL. For the same molecule, the “Initial Foam Height” value in data set [3] was 1.0 cm. Further, the “Time to 0 Foam” value in data set [3] is given as 2 s.

Take `CCCCCCCCN(CCCCCCCC)C(N)=O` [N,N-Di-n-octylurea, N,N-di-n-octylurea, reference compound]: the “Dynamic Surface Tension” value in data set [1] (saturated (<0.1 wt %), 0.1 b/s) worked out at 52.9 dyne/cm; in data set [1] (saturated (<0.1 wt %), 1 b/s) it was 69.8 dyne/cm; in data set [1] (saturated (<0.1 wt %), 6 b/s), 71.1 dyne/cm; in data set [1] (saturated (<0.1 wt %), 15 b/s) it was 70.3 dyne/cm; in data set [1] (saturated (<0.1 wt %), 20 b/s), 69.4 dyne/cm. Further, in data set [2], the “dissolution (in words)” value is given as “Most of the urea remained undissolved”. Besides, in data set [2], the solubility thermodynamic was below 1000 µg/mL.

Take `CCCCCCCCNC(N)=O` [N-Octylurea, n-octylurea]: the Equilibrium surface tension in data set [4] (0.0001 wt % in water) turned out to be 72.2 dyne/cm; in data set [4] (0.0005 wt % in water) it was 72.1 dyne/cm; in data set [4] (0.001 wt % in water), 72.0 dyne/cm; in data set [4] (0.003 wt % in water), 68.9 dyne/cm; in data set [4] (0.005 wt % in water), 62.4 dyne/cm; in data set [4] (0.007 wt % in water), 60.0 dyne/cm. The Equilibrium surface tension in data set [4] (0.009 wt % in water) turned out to be 57.0 dyne/cm; in data set [4] (0.015 wt % in water), 57.1 dyne/cm; in data set [4] (0.03 wt % in water), 55.5 dyne/cm; in data set [4] (0.06 wt % in water), 57.1 dyne/cm. Besides, in data set [4] (limiting value from Table 1 data), the “lowest surface tension which can be obtained for an aqueous solution” value is on record as “about 56 dyne/cm”. In data set [2] (in water), this molecule returned a solubility of 100 µg/mL (≈ 0.58 mM).
